According to US9833497B2, “Human originated EGF domain proteins and use of the same” (CHENGDU SOURCEBIO LIMITED-LIABILITY COMPANY, priority 2013, dated 2017):

Key:
Format in all cases: cell-based
E. coli BL21 = test: MIC against Gram-negative bacteria: E. coli BL21; conditions: 5×10^5 CFU/mL
How it was run: (§1)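 The recombinant human-originated EGF domain proteins were serially diluted two-fold against bacteria at 5×10^5 CFU/mL in LB medium. After shaken incubation at 37° C, the lowest concentration with no bacterial growth was recorded as the MIC.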

Citrobacter diversus = test: MIC against Gram-negative bacteria: Citrobacter diversus; conditions: 5×10^5 CFU/mL; for MIC against C. diversus: Citrobacter diversus
How it was run: as §1

Serratia marcescens = test: MIC against Gram-negative bacteria: Serratia marcescens; conditions: 5×10^5 CFU/mL; for MIC against S. marcescens: Serratia marcescens
How it was run: as §1

Proteus mirabilis = test: MIC against Gram-negative bacteria: Proteus mirabilis; conditions: 5×10^5 CFU/mL; for MIC against P. mirabilis: Proteus mirabilis
How it was run: as §1

Aeromonas hydrophila = test: MIC against Gram-negative bacteria: Aeromonas hydrophila; conditions: 5×10^5 CFU/mL; for MIC against A. hydrophila: Aeromonas hydrophila
How it was run: as §1

Enterobacter cloacae = test: MIC against Gram-negative bacteria: Enterobacter cloacae; conditions: 5×10^5 CFU/mL; for MIC against E. cloacae: Enterobacter cloacae
How it was run: as §1

Moraxella catarrhalis = test: MIC against Gram-negative bacteria: Moraxella catarrhalis; conditions: 5×10^5 CFU/mL; for MIC against M. catarrhalis: Moraxella catarrhalis
How it was run: as §1

E. coli DH5α = test: Antibacterial activity: MIC and growth curve against E. coli DH5α in 96-well plate; conditions: minimal inhibitory concentration against E. coli DH5α; 96-well plate, 5×10^5 CFU/mL, 37° C., judged after 8 h
How it was run: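 Log-phase DH5α (OD600 about 0.5, 37° C, 185 rpm in LB) was pelleted, resuspended in fresh LB and seeded at 5×10^5 CFU/mL with recombinant protein at 50, 25 and 12.5 μg/mL (two-fold series), in triplicate. Plates were shaken at 175 rpm, 37° C, and OD600 was read every 30 min. MIC was the lowest concentration with no growth.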

Proteus vulgaris = test: MIC against Gram-negative bacteria: Proteus vulgaris; conditions: 5×10^5 CFU/mL; for MIC against P. vulgaris: Proteus vulgaris
How it was run: as §1

Klebsiella pneumonia = test: MIC against Gram-negative bacteria: Klebsiella pneumonia; conditions: 5×10^5 CFU/mL; for MIC against K. pneumonia: Klebsiella pneumonia
How it was run: as §1

Pseudomonas aeruginosa = test: MIC against Gram-negative bacteria: Pseudomonas aeruginosa; conditions: 5×10^5 CFU/mL; for MIC against P. aeruginosa: Pseudomonas aeruginosa
How it was run: as §1

[1] = 10 h cultivation at 37° C., two-fold serial dilution

PRT1369 (ASGSCPDDCNDQGRCVRGRCVCFPGYTGPSC; listed as Homo sapiens)
MIC against E. coli BL21 (E. coli BL21; 10 h cultivation at 37° C.): 12.5 µg/mL | MIC against C. diversus (Citrobacter diversus; 10 h cultivation at 37° C.): 12.5 µg/mL | MIC against S. marcescens (Serratia marcescens; 10 h cultivation at 37° C.): 25 µg/mL | MIC against P. mirabilis (Proteus mirabilis; 10 h cultivation at 37° C.): 25 µg/mL | MIC against A. hydrophila (Aeromonas hydrophila; 10 h cultivation at 37° C.): 12.5 µg/mL | MIC against E. cloacae (Enterobacter cloacae; 10 h cultivation at 37° C.): 25 µg/mL | MIC against M. catarrhalis (Moraxella catarrhalis; 10 h cultivation at 37° C.): 12.5 µg/mL | MIC (E. coli DH5α): 12.5 µg/mL | MIC against P. vulgaris (Proteus vulgaris; 10 h cultivation at 37° C.): 12.5 µg/mL | MIC against K. pneumonia (Klebsiella pneumonia; 10 h cultivation at 37° C.): 12.5 µg/mL | MIC against P. aeruginosa (Pseudomonas aeruginosa; 10 h cultivation at 37° C.): 12.5 µg/mL

PRT1311 (LLDPCSKNNGGCSPYATCKSTGDGQRTCTCDTAHTVGDGLTCR; listed as Homo sapiens)
MIC against E. coli BL21 (E. coli BL21; 96-well plate, 37° C., 10 h): 25 µg/mL | MIC against C. diversus (Citrobacter diversus; 96-well plate, 37° C., 10 h): 50 µg/mL | MIC against S. marcescens (Serratia marcescens; 96-well plate, 37° C., 10 h): 25 µg/mL | MIC against P. mirabilis (Proteus mirabilis; 96-well plate, 37° C., 10 h): 12.5 µg/mL | MIC against A. hydrophila (Aeromonas hydrophila; 96-well plate, 37° C., 10 h): 12.5 µg/mL | MIC against E. cloacae (Enterobacter cloacae; 96-well plate, 37° C., 10 h): 50 µg/mL | MIC against M. catarrhalis (Moraxella catarrhalis; 96-well plate, 37° C., 10 h): 25 µg/mL | MIC (E. coli DH5α): 50 µg/mL | MIC against P. vulgaris (Proteus vulgaris; 96-well plate, 37° C., 10 h): 25 µg/mL | MIC against K. pneumonia (Klebsiella pneumonia; 96-well plate, 37° C., 10 h): 25 µg/mL | MIC against P. aeruginosa (Pseudomonas aeruginosa; 96-well plate, 37° C., 10 h): 12.5 µg/mL

PRT730 (NGNSCSDFNGGCTHECVQEPFGAKCLCPLGFLLANDSKTCE; listed as Homo sapiens)
MIC E. coli BL21 (E. coli BL21; 96-well plate, 37° C., 10 h): 12.5 µg/mL | MIC C. diversus (Citrobacter diversus; 96-well plate, 37° C., 10 h): 12.5 µg/mL | MIC S. marcescens (Serratia marcescens; 96-well plate, 37° C., 10 h): 25 µg/mL | MIC P. mirabilis (Proteus mirabilis; 96-well plate, 37° C., 10 h): 50 µg/mL | MIC A. hydrophila (Aeromonas hydrophila; 96-well plate, 37° C., 10 h): 25 µg/mL | MIC E. cloacae (Enterobacter cloacae; 96-well plate, 37° C., 10 h): 50 µg/mL | MIC M. catarrhalis (Moraxella catarrhalis; 96-well plate, 37° C., 10 h): 25 µg/mL | MIC (E. coli DH5α): 25 µg/mL | MIC P. vulgaris (Proteus vulgaris; 96-well plate, 37° C., 10 h): 12.5 µg/mL | MIC K. pneumonia (Klebsiella pneumonia; 96-well plate, 37° C., 10 h): 25 µg/mL | MIC P. aeruginosa (Pseudomonas aeruginosa; 96-well plate, 37° C., 10 h): 25 µg/mL

PRT1111 (SEDMCSPDPCFNGGTCLVTWNDFHCTCPANFTGPTCA; listed as Homo sapiens)
MIC E. coli BL21 (E. coli BL21; [1]): 50 µg/mL | MIC C. diversus (Citrobacter diversus; [1]): 12.5 µg/mL | MIC S. marcescens (Serratia marcescens; [1]): 12.5 µg/mL | MIC P. mirabilis (Proteus mirabilis; [1]): 50 µg/mL | MIC A. hydrophila (Aeromonas hydrophila; [1]): 25 µg/mL | MIC E. cloacae (Enterobacter cloacae; [1]): 25 µg/mL | MIC M. catarrhalis (Moraxella catarrhalis; [1]): 25 µg/mL | MIC (E. coli DH5α): 12.5 µg/mL | MIC P. vulgaris (Proteus vulgaris; [1]): 25 µg/mL | MIC K. pneumonia (Klebsiella pneumonia; [1]): 50 µg/mL | MIC P. aeruginosa (Pseudomonas aeruginosa; [1]): 12.5 µg/mL

PRT1381 (GMRSCPRGCSQRGRCENGRCVCNPGYTGEDC; listed as Homo sapiens)
MIC against E. coli BL21 (E. coli BL21; 10 h cultivation at 37° C.): 25 µg/mL | MIC against C. diversus (Citrobacter diversus; 10 h cultivation at 37° C.): 25 µg/mL | MIC against S. marcescens (Serratia marcescens; 10 h cultivation at 37° C.): 25 µg/mL | MIC against P. mirabilis (Proteus mirabilis; 10 h cultivation at 37° C.): 25 µg/mL | MIC against A. hydrophila (Aeromonas hydrophila; 10 h cultivation at 37° C.): 50 µg/mL | MIC against E. cloacae (Enterobacter cloacae; 10 h cultivation at 37° C.): 12.5 µg/mL | MIC against M. catarrhalis (Moraxella catarrhalis; 10 h cultivation at 37° C.): 12.5 µg/mL | MIC (E. coli DH5α): 12.5 µg/mL | MIC against P. vulgaris (Proteus vulgaris; 10 h cultivation at 37° C.): 50 µg/mL | MIC against K. pneumonia (Klebsiella pneumonia; 10 h cultivation at 37° C.): 25 µg/mL | MIC against P. aeruginosa (Pseudomonas aeruginosa; 10 h cultivation at 37° C.): 50 µg/mL

PRT787 (RQICDCLNNSTCDHITGTCYCSPGWKGARCD; listed as Homo sapiens)
MIC (μg/mL) E. coli BL21 (E. coli BL21; 10 h cultivation at 37° C.): 12.5 µg/mL | MIC (μg/mL) C. diversus (Citrobacter diversus; 10 h cultivation at 37° C.): 25 µg/mL | MIC (μg/mL) S. marcescens (Serratia marcescens; 10 h cultivation at 37° C.): 12.5 µg/mL | MIC (μg/mL) P. mirabilis (Proteus mirabilis; 10 h cultivation at 37° C.): 25 µg/mL | MIC (μg/mL) A. hydrophila (Aeromonas hydrophila; 10 h cultivation at 37° C.): 12.5 µg/mL | MIC (μg/mL) E. cloacae (Enterobacter cloacae; 10 h cultivation at 37° C.): 12.5 µg/mL | MIC (μg/mL) M. catarrhalis (Moraxella catarrhalis; 10 h cultivation at 37° C.): 50 µg/mL | MIC (E. coli DH5α): 12.5 µg/mL | MIC (μg/mL) P. vulgaris (Proteus vulgaris; 10 h cultivation at 37° C.): 25 µg/mL | MIC (μg/mL) K. pneumonia (Klebsiella pneumonia; 10 h cultivation at 37° C.): 12.5 µg/mL | MIC (μg/mL) P. aeruginosa (Pseudomonas aeruginosa; 10 h cultivation at 37° C.): 12.5 µg/mL

PRT243 (DVNECGMKPRPCQHRCVNTHGSYKCFCLSGHMLMPDATCV; listed as Homo sapiens)
MIC (μg/mL) E. coli BL21 (E. coli BL21; 10 h cultivation at 37° C.): 12.5 µg/mL | MIC (μg/mL) C. diversus (Citrobacter diversus; 10 h cultivation at 37° C.): 12.5 µg/mL | MIC (μg/mL) S. marcescens (Serratia marcescens; 10 h cultivation at 37° C.): 12.5 µg/mL | MIC (μg/mL) P. mirabilis (Proteus mirabilis; 10 h cultivation at 37° C.): 12.5 µg/mL | MIC (μg/mL) A. hydrophila (Aeromonas hydrophila; 10 h cultivation at 37° C.): 25 µg/mL | MIC (μg/mL) E. cloacae (Enterobacter cloacae; 10 h cultivation at 37° C.): 12.5 µg/mL | MIC (μg/mL) M. catarrhalis (Moraxella catarrhalis; 10 h cultivation at 37° C.): 25 µg/mL | MIC (E. coli DH5α): 12.5 µg/mL | MIC (μg/mL) P. vulgaris (Proteus vulgaris; 10 h cultivation at 37° C.): 25 µg/mL | MIC (μg/mL) K. pneumonia (Klebsiella pneumonia; 10 h cultivation at 37° C.): 12.5 µg/mL | MIC (μg/mL) P. aeruginosa (Pseudomonas aeruginosa; 10 h cultivation at 37° C.): 12.5 µg/mL
